Values quoted from earlier work as cited in patent US20260373165A1, “PHARMACEUTICAL COMBINATIONS AND COMPOSITIONS, AND METHODS OF USE THEREOF” (SHENZHEN HIGHTIDE BIOPHARMACEUTICAL LTD., priority 2022, published 2026).

Settings: after 52 weeks of treatment, lower dose of semaglutide; cited from earlier work

Question: Which “average decrease in total fat mass” value does the source give for `Cc1ccc([C@@H]2O[C@H](CO)[C@@H](O)[C@H](O)[C@H]2O)cc1Cc1ccc(-c2ccc(F)cc2)s1` [cangliflozin, canagliflozin] here?
Answer: Its value is 7.8%.

Question: What about the “average decrease in total muscle mass” value of the same compound?
Answer: The value was 2.9%.
